The results in this text go back to US8455525B2, “Selective androgen receptor modulators” (Radius Health, Inc., priority 2008, dated 2013).

SMILES strings stand for the structures. Structures can show the parent of a compound that is named as a salt.

What is called IC50 is the concentration needed to halve the response being measured. Low readings indicate higher potency, high ones lower potency.

In the assay the target is T1, androgen receptor (AR) (Rattus norvegicus, UniProt P15207).
T1 construct: purchased Invitrogen, Madison, Wis
T1 sequence (P15207 651-902 limits assumed): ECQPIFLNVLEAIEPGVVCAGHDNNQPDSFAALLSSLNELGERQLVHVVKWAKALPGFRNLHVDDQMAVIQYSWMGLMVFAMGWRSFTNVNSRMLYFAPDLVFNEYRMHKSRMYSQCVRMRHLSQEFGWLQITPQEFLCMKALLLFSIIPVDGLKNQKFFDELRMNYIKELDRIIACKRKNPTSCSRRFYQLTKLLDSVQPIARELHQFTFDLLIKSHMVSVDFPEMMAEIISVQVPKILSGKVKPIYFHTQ
As to the kind of experiment: androgen receptor binding assay (fluorescence polarization, Fluormone AL Green competition). As to the method: The assay was performed as specified by the manufacturer (Invitrogen, Madison, Wis.). Briefly, 1 μl of 10 mM compound was added to 500 μl of AR screening buffer in a 1.5 ml eppendorf tube to make a 2×10^−5M stock. 10-fold serial dilutions of the test compounds were prepared ranging in concentration from 10^−5M to 10^−12M. Each dilution was added in triplicate to a black 384-microtiter plate. The test compounds will be diluted 2-fold in the final reaction. 2×AR-Fluormone™ complex was prepared with 2 nM Flourmone AL Green™ and 30 nM AR. 25 μl of 2× complex was aliquoted to each reaction well, such that the final reaction volume was 50 μl per well. Plate was sealed with a foil cover and incubated in the dark at room temperature for 4 h. Polarization values for each well were measured. The polarization values were plotted against the concentration of the test compound. […] As a control, a competition curve for R1881 (methyltrienolone) was performed for each assay. Curve Fitting was performed using GraphPad Prism® software from GraphPad™ Software Inc. Binding data are reported as a single determination if the experiment was run once only and as the average of experiments if the binding experiment was performed two or more times with that compound.
Where multiple data points have been taken, the value reported is the average of the multiple determinations.
`Cc1c(N[C@@H](c2nnc(-c3ccc(C#N)cc3)o2)[C@@H](C)O)ccc(C#N)c1C(F)(F)F` [Example 31, 4-((1R,2R)-1-(5-(4-cyanophenyl)-1,3,4-oxadiazol-2-yl)-2-hydroxypropylamino)-3-methyl-2-(trifluoromethyl)benzonitrile] came in with an IC50 of 5.9 nM. This lies in the single-digit nanomolar range.

`Cc1c(N[C@@H](c2nnc(-c3ccc(Cl)c(Cl)c3)o2)[C@@H](C)O)ccc(C#N)c1Cl` [Example 32, 2-Chloro-4-((1R,2R)-1-(5-(3,4-dichlorophenyl)-1,3,4-oxadiazol-2-yl)-2-hydroxypropylamino)-3-methylbenzonitrile]: the IC50 turned out to be 2 nM.

`C[C@H](O)[C@@H](Nc1ccc(C#N)c(Cl)c1Cl)c1nnc(-c2ccccc2)o1` [Example 33, 2,3-dichloro-4-((1R,2S)-2-hydroxy-1-(5-phenyl-1,3,4-oxadiazol-2-yl)propylamino)benzonitrile]: the IC50 is 15 nM.

`C[C@H](O)[C@@H](Nc1ccc(C#N)c(Cl)c1Cl)c1nnc(-c2ccc(Cl)cc2)o1` [Example 34, 2,3-Dichloro-4-((1R,2S)-1-(5-(4-chlorophenyl)-1,3,4-oxadiazol-2-yl)-2-hydroxypropylamino)benzonitrile] had an IC50 of 4 nM.

On to `Cc1c(N[C@@H](c2nnc(-c3ccc(F)cc3F)o2)[C@@H](C)O)ccc(C#N)c1Cl` [Example 35, 2-Chloro-4-((1R,2R)-1-(5-(2,4-difluorophenyl)-1,3,4-oxadiazol-2-yl)-2-hydroxypropylamino)-3-methylbenzonitrile], for which the IC50 is 0.2 nM.

In the case of `Cc1c(N[C@@H](c2ncc(-c3ccccc3)o2)[C@H](C)O)ccc(C#N)c1Cl` [Example 36, 2-Chloro-4-((1R,2S)-2-hydroxy-1-(5-phenyloxazol-2-yl)propylamino)-3-methylbenzonitrile], the IC50 is 12 nM. Against the preceding compound, the IC50 is about 60-fold higher.

With `Cc1c(N[C@@H](c2nnc(-c3ccc(O)c(Cl)c3)o2)[C@H](C)O)ccc(C#N)c1Cl` [Example 37, 2-Chloro-4-((1R,2S)-1-(5-(3-chloro-4-hydroxyphenyl)-1,3,4-oxadiazol-2-yl)-2-hydroxypropylamino)-3-methylbenzonitrile], the IC50 was 0.2 nM.

For the compound `Cc1c(N[C@@H](c2nnc(-c3ccc(F)c(F)c3)o2)[C@@H](C)O)ccc(C#N)c1Cl` [Example 39, 2-Chloro-4-((1R,2R)-1-(5-(3,4-difluorophenyl)-1,3,4-oxadiazol-2-yl)-2-hydroxypropylamino)-3-methylbenzonitrile], the IC50 was found to be 0.1 nM. Compared with the last compound, the IC50 is about 2-fold lower.

As for `Cc1c(N[C@@H](c2nnc(-c3ccc(F)c(O)c3)o2)[C@H](C)O)ccc(C#N)c1Cl` [Example 40, 2-Chloro-4-((1R,2S)-1-(5-(4-fluoro-3-hydroxyphenyl)-1,3,4-oxadiazol-2-yl)-2-hydroxypropylamino)-3-methylbenzonitrile], the IC50 came out at 0.2 nM.

`Cc1c(N[C@@H](c2nnc(-c3ccc(F)c(O)c3)o2)[C@@H](C)O)ccc(C#N)c1Cl` [Example 41, 2-Chloro-4-((1R,2R)-1-(5-(4-fluoro-3-hydroxyphenyl)-1,3,4-oxadiazol-2-yl)-2-hydroxypropylamino)-3-methylbenzonitrile] yielded a 50% inhibitory concentration (IC50) of 0.02 nM. Compared with the last compound, the IC50 is about 10-fold lower.

In turn, `Cc1c(N[C@@H](c2nnc(-c3ccc(C#N)cc3)o2)[C@H](C)O)ccc(C#N)c1C(F)(F)F` [Example 42, 4-((1R,2S)-1-(5-(4-Cyanophenyl)-1,3,4-oxadiazol-2-yl)-2-hydroxypropylamino)-3-methyl-2-(trifluoromethyl)benzonitrile] returned an IC50 of 9 nM.

`Cc1nnc([C@H](Nc2ccc(C#N)c(Cl)c2C)[C@H](C)O)o1` [Example 43, 2-Chloro-4-((1R,2S)-2-hydroxy-1-(5-methyl-1,3,4-oxadiazol-2-yl)propylamino)-3-methylbenzonitrile hydrochloride] returned an IC50 of 3 nM. Compared with the last compound, the IC50 is about 3-fold lower.

As to `C[C@@H](O)[C@@H](Nc1ccc(C#N)c(C(F)(F)F)c1)c1nnc(-c2ccc(C#N)cc2)o1` [Example 44, 4-((1R,2R)-1-(5-(4-Cyanophenyl)-1,3,4-oxadiazol-2-yl)-2-hydroxypropylamino)-2-(trifluoro-methyl)benzonitrile], the IC50 came out at 5 nM.
